In PubChem BioAssay AID1963980 (Molecular Pharmacology Branch, DTP, NCI, 2024):

Tested on: 475296-252-R-J1-PDC spheroid viability
Experiment: Anticancer human tumor 475296-252-R-J1-PDC patient-derived rectal carcinoma cell line growth inhibition [PI3K]
Conditions: spheroids with HUVEC and MSC; for IC50: curve of first compound; for viability, T/C: stronger effect = lower value
In short: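 Three cell types, namely tumor cells, endothelial cells and mesenchymal stem cells, formed each spheroid. Combinations with four PI3K inhibitors were screened at clinically achievable concentrations decreasing by half-log, and spheroid viability was recorded.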

[1] = second compound 0.00316 µM, first compound 0.0316 µM
[2] = second compound 0.00316 µM, first compound 0.1 µM
[3] = second compound 0.00316 µM, first compound 0.316 µM
[4] = second compound 0.00316 µM, first compound 1 µM
[5] = second compound 0.00316 µM, first compound 3.16 µM
[6] = second compound 0.00316 µM, first compound 10 µM
[7] = second compound 0.01 µM, first compound 0.0316 µM
[8] = second compound 0.01 µM, first compound 0.1 µM
[9] = second compound 0.01 µM, first compound 0.316 µM
[10] = second compound 0.01 µM, first compound 1 µM
[11] = second compound 0.01 µM, first compound 3.16 µM
[12] = second compound 0.01 µM, first compound 10 µM
[13] = second compound 0.0316 µM, first compound 0.0316 µM
[14] = second compound 0.0316 µM, first compound 0.1 µM
[15] = second compound 0.0316 µM, first compound 0.316 µM
[16] = second compound 0.0316 µM, first compound 1 µM
[17] = second compound 0.0316 µM, first compound 3.16 µM
[18] = second compound 0.0316 µM, first compound 10 µM
[19] = second compound 0.1 µM, first compound 0.0316 µM
[20] = second compound 0.1 µM, first compound 0.1 µM
[21] = second compound 0.1 µM, first compound 0.316 µM
[22] = second compound 0.1 µM, first compound 1 µM
[23] = second compound 0.1 µM, first compound 3.16 µM
[24] = second compound 0.1 µM, first compound 10 µM
[25] = second compound 0.316 µM, first compound 0.0316 µM
[26] = second compound 0.316 µM, first compound 0.1 µM
[27] = second compound 0.316 µM, first compound 0.316 µM
[28] = second compound 0.316 µM, first compound 1 µM
[29] = second compound 0.316 µM, first compound 3.16 µM
[30] = second compound 0.316 µM, first compound 10 µM
[31] = second compound 1 µM, first compound 0.0316 µM
[32] = second compound 1 µM, first compound 0.1 µM
[33] = second compound 1 µM, first compound 0.316 µM
[34] = second compound 1 µM, first compound 1 µM
[35] = second compound 1 µM, first compound 3.16 µM
[36] = second compound 1 µM, first compound 10 µM
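Note: spheroids exposed to agents for seven days before readout.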

## CC(C)NCC(C(=O)N1CCN(c2ncnc3c2C(C)CC3O)CC1)c1ccc(Cl)cc1 (stereo not drawn) + COc1c(OCCCN2CCOCC2)ccc2c3n(c(=NC(=O)c4cnc(N)nc4)nc12)CCN3
Second compound 0.00316 µM
  IC50: > 10000 nM
Second compound 0.01 µM
  IC50: > 10000 nM
Second compound 0.0316 µM
  IC50: > 10000 nM
Second compound 0.1 µM
  IC50: > 10000 nM
Second compound 0.316 µM
  IC50: > 10000 nM
Second compound 1 µM
  IC50: 6180 nM
[1]
  viability, T/C: 98.5%
[2]
  viability, T/C: 94.5%
[3]
  viability, T/C: 94.1%
[4]
  viability, T/C: 92.2%
[5]
  viability, T/C: 67.2%
[6]
  viability, T/C: 55.1%
[7]
  viability, T/C: 106%
[8]
  viability, T/C: 99%
[9]
  viability, T/C: 96.5%
[10]
  viability, T/C: 84.7%
[11]
  viability, T/C: 65.6%
[12]
  viability, T/C: 60%
[13]
  viability, T/C: 108%
[14]
  viability, T/C: 102%
[15]
  viability, T/C: 87.2%
[16]
  viability, T/C: 79.5%
[17]
  viability, T/C: 77%
[18]
  viability, T/C: 78.2%
[19]
  viability, T/C: 92.8%
[20]
  viability, T/C: 77.9%
[21]
  viability, T/C: 87.6%
[22]
  viability, T/C: 72.1%
[23]
  viability, T/C: 75.2%
[24]
  viability, T/C: 62%
[25]
  viability, T/C: 68.6%
[26]
  viability, T/C: 75%
[27]
  viability, T/C: 70.2%
[28]
  viability, T/C: 71.4%
[29]
  viability, T/C: 62.7%
[30]
  viability, T/C: 59.7%
[31]
  viability, T/C: 60.4%
[32]
  viability, T/C: 56%
[33]
  viability, T/C: 67%
[34]
  viability, T/C: 63.5%
[35]
  viability, T/C: 55.8%
[36]
  viability, T/C: 38.2%

## CCN1CCN(Cc2ccc(Nc3ncc(F)c(-c4cc(F)c5nc(C)n(C(C)C)c5c4)n3)nc2)CC1 + COc1c(OCCCN2CCOCC2)ccc2c3n(c(=NC(=O)c4cnc(N)nc4)nc12)CCN3
Second compound 0.00316 µM
  IC50: > 1000 nM
Second compound 0.01 µM
  IC50: > 1000 nM
Second compound 0.0316 µM
  IC50: > 1000 nM
Second compound 0.1 µM
  IC50: > 1000 nM
Second compound 0.316 µM
  IC50: > 1000 nM
Second compound 1 µM
  IC50: > 1000 nM
Second compound 0.00316 µM, first compound 0.00316 µM
  viability, T/C: 99.3%
Second compound 0.00316 µM, first compound 0.01 µM
  viability, T/C: 102%
[1]
  viability, T/C: 97.5%
[2]
  viability, T/C: 104%
[3]
  viability, T/C: 100%
[4]
  viability, T/C: 90.6%
Second compound 0.01 µM, first compound 0.00316 µM
  viability, T/C: 95.6%
Second compound 0.01 µM, first compound 0.01 µM
  viability, T/C: 95%
[7]
  viability, T/C: 93.1%
[8]
  viability, T/C: 95.2%
[9]
  viability, T/C: 104%
[10]
  viability, T/C: 76.4%
Second compound 0.0316 µM, first compound 0.00316 µM
  viability, T/C: 83.8%
Second compound 0.0316 µM, first compound 0.01 µM
  viability, T/C: 92.5%
[13]
  viability, T/C: 99.2%
[14]
  viability, T/C: 95.1%
[15]
  viability, T/C: 86.9%
[16]
  viability, T/C: 64.4%
Second compound 0.1 µM, first compound 0.00316 µM
  viability, T/C: 86.3%
Second compound 0.1 µM, first compound 0.01 µM
  viability, T/C: 94.4%
[19]
  viability, T/C: 84.8%
[20]
  viability, T/C: 87.2%
[21]
  viability, T/C: 85.9%
[22]
  viability, T/C: 63.8%
Second compound 0.316 µM, first compound 0.00316 µM
  viability, T/C: 74.3%
Second compound 0.316 µM, first compound 0.01 µM
  viability, T/C: 78.4%
[25]
  viability, T/C: 72.5%
[26]
  viability, T/C: 65.3%
[27]
  viability, T/C: 63%
[28]
  viability, T/C: 50%
Second compound 1 µM, first compound 0.00316 µM
  viability, T/C: 62.8%
Second compound 1 µM, first compound 0.01 µM
  viability, T/C: 58.2%
[31]
  viability, T/C: 63.6%
[32]
  viability, T/C: 55.8%
[33]
  viability, T/C: 56%
[34]
  viability, T/C: 55.2%

## Cn1ncc(Cl)c1-c1cc(C(=O)NC(CN)Cc2cccc(F)c2)sc1Cl (stereo not drawn) + COc1c(OCCCN2CCOCC2)ccc2c3n(c(=NC(=O)c4cnc(N)nc4)nc12)CCN3
Second compound 0.00316 µM
  IC50: > 10000 nM
Second compound 0.01 µM
  IC50: > 10000 nM
Second compound 0.0316 µM
  IC50: 2090 nM
Second compound 0.1 µM
  IC50: 2920 nM
Second compound 0.316 µM
  IC50: 1360 nM
Second compound 1 µM
  IC50: 888 nM
[1]
  viability, T/C: 86.5%
[2]
  viability, T/C: 70.6%
[3]
  viability, T/C: 80.1%
[4]
  viability, T/C: 67.9%
[5]
  viability, T/C: 66.1%
[6]
  viability, T/C: 55.7%
[7]
  viability, T/C: 93.4%
[8]
  viability, T/C: 91.5%
[9]
  viability, T/C: 62.1%
[10]
  viability, T/C: 58.5%
[11]
  viability, T/C: 59.4%
[12]
  viability, T/C: 59.2%
[13]
  viability, T/C: 82.9%
[14]
  viability, T/C: 89.4%
[15]
  viability, T/C: 90.4%
[16]
  viability, T/C: 59%
[17]
  viability, T/C: 53%
[18]
  viability, T/C: 36.9%
[19]
  viability, T/C: 80%
[20]
  viability, T/C: 79.4%
[21]
  viability, T/C: 72.6%
[22]
  viability, T/C: 56.4%
[23]
  viability, T/C: 54.3%
[24]
  viability, T/C: 27.1%
[25]
  viability, T/C: 69.2%
[26]
  viability, T/C: 69.4%
[27]
  viability, T/C: 62.1%
[28]
  viability, T/C: 54%
[29]
  viability, T/C: 39.5%
[30]
  viability, T/C: 22.5%
[31]
  viability, T/C: 61.4%
[32]
  viability, T/C: 53.8%
[33]
  viability, T/C: 67.8%
[34]
  viability, T/C: 42.4%
[35]
  viability, T/C: 36.1%
[36]
  viability, T/C: 16.4%

## Cn1nccc1Nc1nccc(-c2ccn(C(CO)c3ccc(Cl)c(F)c3)c(=O)c2)n1 (stereo not drawn) + COc1c(OCCCN2CCOCC2)ccc2c3n(c(=NC(=O)c4cnc(N)nc4)nc12)CCN3
Second compound 0.00316 µM
  IC50: > 10000 nM
Second compound 0.01 µM
  IC50: > 10000 nM
Second compound 0.0316 µM
  IC50: 2780 nM
Second compound 0.1 µM
  IC50: 1020 nM
Second compound 0.316 µM
  IC50: 612 nM
Second compound 1 µM
  IC50: 129 nM
[1]
  viability, T/C: 88.1%
[2]
  viability, T/C: 107%
[3]
  viability, T/C: 95.3%
[4]
  viability, T/C: 94.8%
[5]
  viability, T/C: 77.2%
[6]
  viability, T/C: 58.3%
[7]
  viability, T/C: 88.5%
[8]
  viability, T/C: 88.2%
[9]
  viability, T/C: 88.4%
[10]
  viability, T/C: 85.7%
[11]
  viability, T/C: 70.6%
[12]
  viability, T/C: 50.5%
[13]
  viability, T/C: 92.5%
[14]
  viability, T/C: 89.7%
[15]
  viability, T/C: 80.2%
[16]
  viability, T/C: 84.6%
[17]
  viability, T/C: 45.6%
[18]
  viability, T/C: 42.7%
[19]
  viability, T/C: 78%
[20]
  viability, T/C: 81%
[21]
  viability, T/C: 64.3%
[22]
  viability, T/C: 53.6%
[23]
  viability, T/C: 24%
[24]
  viability, T/C: 8.76%
[25]
  viability, T/C: 74.7%
[26]
  viability, T/C: 78.5%
[27]
  viability, T/C: 58.8%
[28]
  viability, T/C: 43.8%
[29]
  viability, T/C: 7.08%
[30]
  viability, T/C: 3.11%
[31]
  viability, T/C: 54.9%
[32]
  viability, T/C: 51.5%
[33]
  viability, T/C: 42.6%
[34]
  viability, T/C: 29.2%
[35]
  viability, T/C: 10%
[36]
  viability, T/C: 5.49%
